Tests used:
H2-Dd expression = experiment: H2-Dd surface expression on MHC-I^low lung tumor escaper cell lines (flow cytometry); format: cell-based, mouse; details: H2-Dd-downregulated cell lines; ADU-S100 50 μM, 24 h
Method: To uncover the mechanisms that would explain this resistance to treatment, ex vivo escaped tumors were isolated from each treatment group. […] To understand whether the observed H2-Dd downregulation was sufficient to impair tumor rejection, tumor cells with high H2-Dd isolated from untreated mice or tumor cells with low H2-Dd isolated from ALK vaccinated mice and treated with ICI were injected. Treatment with ICI induced rejection of tumors with high H2-Dd expression (FIGS. 6D-6E), consistent with previous experiments (FIG. 3E), but not of escaped tumors with low H2-Dd expression (FIGS. 6F-6G). Finally, it was asked whether H2-Dd expression could be restored by Stimulator of IFN genes (STING) signaling that can increase MHC-I expression in other models of lung cancer.
Allophycocyanin (APC)-conjugates H-2D^d-[…] (SEQ ID NO: 22) Dextramer reagents were obtained from Immudex (Immudex, Denmark). […] After washing step, cells were ready to be acquired. When referred, also PD-1 (clone RMP1-30; BV421-PD-1, BD Pharmingen™, USA) expression was evaluated together with dextramer staining, being added together with FITC-CD8. H2-Dd MHC-I expression was measured on relapsed tumors after treatment. […] All cells were acquired in a BD Celesta flow cytometer (BD Bioscience, USA) and analyzed by using the FlowJo software (FlowJo LCC, USA). […]

[1] = tested on: Ad-EA mice (mEml4-Alk rearranged lung tumor); experiment: Lung tumor volume by MRI and survival in Ad-EA mice; format: in vivo, mouse
Description: (§2) EML4-ALK transgenic (Tg) mice, which express the human EML4-ALK (E13;A20, human variant 1) driven by the SP-C promoter (henceforth referred as hEML4-ALK Tg mice), and BALB/c mice infected intratracheally with adenovirus carrying the CRISPR/Cas9 system to induce in vivo the Eml4-Alk rearrangement (E14;A20, mouse variant 1) (henceforth referred as Ad-EA mice). […] In these models, magnetic resonance imaging (MRI) (FIG. 1B) allowed precise cohort stratification and tumor follow-up.
Anatomical T2-weighted coronal images were acquired with a respiratory-triggered multislice fast spin echo RARE sequence (TR=4 s, TE=4.5 ms, Rare Factor (RF)=16, FOV=30 mm^2, Matrix=256×256, slices=16-20, slice thickness=1 mm, 2 averages, providing an in-plane spatial resolution of 117 μm) with a 7T MRI (Bruker Advance III, Ettlingen, Germany) scanner equipped with a quadrature 1H coil. Animals were anesthetized by intraperitoneal injection of a combination of ROMPUN® (Bayer, 5 mg/kg) and ZOLETIL 100® (Laboratoires Virbac, 20 mg/kg); breathing was monitored during acquisition of the MR images with a respiratory sensor (SA Instruments, Inc.). Tumor volumes and numbers of masses calculations were performed by manual segmentation (slice by slice contouring) with ITK-SNAP software (www.itksnap.org).
Syngeneic mice models transplanted with tumor cells were treated intraperitoneally with 200 μg of anti-PD-1 and/or anti-CTLA-4 (clone 9D9, Bioxcell), on days 3, 6, and 9 post-tumor transplantation (3 injections/per mouse).

mEml4-Alk cell lines = experiment: Cell viability assay (CellTiter-Glo) in mEml4-Alk cell lines; format: cell-based; details: Mus musculus, mEml4-Alk^1, 72 h
Method: (§1) “[…]” is disclosed as SEQ ID NO: 22. […] “[…]” is disclosed as SEQ ID NO: 22.
Cell viability assay was performed in all immortalized mouse cell lines by using CellTiter-Glo (Promega, USA) according to the manufacturer's instructions. […] After 72 h, CellTiter-Glo reagent was added to each well and luminescence output data were taken by GloMax-Multi Detection System (Promega, USA). The correspondent IC50 value for each ALK inhibitor was calculated with GraphPad Prism 9 software (GraphPad, USA).

[2] = tested on: mEml4-Alk cell line tumors; experiment: mEml4-Alk syngeneic tumors in BALB/c mice; format: in vivo; details: mEml4-Alk cell lines in syngeneic BALB/c mice
Method: as §1
To determine whether these differences in anaplastic lymphoma kinase (ALK)-specific CD8^+ T-cell responses translated into a different anti-tumor activity, mice were treated with either flank or lung tumors with immune checkpoint inhibitors (ICIs). […] Tumor-free mice were then rechallenged to assess ALK-specific CD8^+ T-cell memory response. […] In contrast to flank tumors, ICI was ineffective against Eml4-Alk^[…]-1 (“[…]” disclosed as SEQ ID NO: 22) lung tumors as measured by overall survival (FIG. 3I), and lung tumor histology (FIG. 3J). Systemic ALK-specific CD8^+ T-cell response was analyzed in mice bearing flank or lung tumors. […] It was concluded that the robustness of the spontaneous ALK-specific CD8^+ T-cell response depended on tumor localization and determined the response to immune checkpoint inhibitors (ICIs).
For syngeneic subcutaneous tumor transplantation, a total of 1×10^6 immortalized mouse cells were subcutaneously inoculated into the right dorsal flanks of 8-12 week-old BALB/c mice in 100 μL of phosphate-buffered saline (PBS). […] Tumor volume was measured by caliper measurements every 3 days in a blinded fashion and calculated according to the following equation: H. W^2/2. […]

[3] = tested on: ALK-rearranged (ALK^+) NSCLC; details: patients with resistance to earlier ALK TKIs; cited from earlier work
[4] = tested on: hEML4-ALK Tg mice (ALK^+ lung tumors); experiment: Lung tumor volume by MRI and survival in hEML4-ALK Tg mice; details: crizotinib 40 mg/kg or lorlatinib 2 mg/kg, MRI
Description: as §2
Anatomical T2-weighted coronal images were acquired with a respiratory-triggered multislice fast spin echo RARE sequence (TR=4 s, TE=4.5 ms, Rare Factor (RF)=16, FOV=30 mm^2, Matrix=256×256, slices=16-20, slice thickness=1 mm, 2 averages, providing an in-plane spatial resolution of 117 μm) with a 7T MRI (Bruker Advance III, Ettlingen, Germany) scanner equipped with a quadrature 1H coil. Animals were anesthetized by intraperitoneal injection of a combination of ROMPUN® (Bayer, 5 mg/kg) and ZOLETIL 100® (Laboratoires Virbac, 20 mg/kg); breathing was monitored during acquisition of the MR images with a respiratory sensor (SA Instruments, Inc.). Tumor volumes and numbers of masses calculations were performed by manual segmentation (slice by slice contouring) with ITK-SNAP software (www.itksnap.org). […]

Row | SMILES | H2-Dd expression (H2-Dd expression) | tumor response at the end of treatment ([1]; crizotinib 40 mg/kg or lorlatinib 2 mg/kg, MRI) | tumor response by MRI, prolonged treatment ([1]; lorlatinib up to 8 weeks, tumors relapsed upon suspension) | IC50 (mEml4-Alk cell lines) | tumor sensitivity in vivo [2] | average disease control [3] | tumor response at the end of treatment [4]
1 | Nc1ncnc2c1ncn2[C@@H]1O[C@@H]2CO[P@](=O)(S)O[C@@H]3[C@H](O)[C@@H](CO[P@@](=O)(S)O[C@H]2[C@H]1O)O[C@H]3n1cnc2c(N)ncnc21 [ADU-S100, reference compound] | strongly upregulating H2-Dd expression |  |  |  |  |  | 
2 | C[C@H]1Oc2cc(cnc2N)-c2c(nn(C)c2C#N)CN(C)C(=O)c2ccc(F)cc21 [lorlatinib] |  | almost complete regression of tumors | complete remission by MRI | 1.17 nM | marked sensitivity | 7 months | almost complete regression of tumors

From patent publication US20250057930A1, “ANAPLASTIC LYMPHOMA KINASE (ALK) CANCER VACCINES AND METHODS OF USE THEREOF” (The Children's Medical Center Corporation, priority 2022, published 2025)
